Active and inactive are the calls of the source.
Assays:
cells = type: functional
Cytochrome P450 1A2 = target: T1, Cytochrome P450 1A2 (Homo sapiens, UniProt P05177);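 note: PubChem cytochrome P450 panel assay, CYP1A2 panel member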
T1 sequence (P05177 whole entry): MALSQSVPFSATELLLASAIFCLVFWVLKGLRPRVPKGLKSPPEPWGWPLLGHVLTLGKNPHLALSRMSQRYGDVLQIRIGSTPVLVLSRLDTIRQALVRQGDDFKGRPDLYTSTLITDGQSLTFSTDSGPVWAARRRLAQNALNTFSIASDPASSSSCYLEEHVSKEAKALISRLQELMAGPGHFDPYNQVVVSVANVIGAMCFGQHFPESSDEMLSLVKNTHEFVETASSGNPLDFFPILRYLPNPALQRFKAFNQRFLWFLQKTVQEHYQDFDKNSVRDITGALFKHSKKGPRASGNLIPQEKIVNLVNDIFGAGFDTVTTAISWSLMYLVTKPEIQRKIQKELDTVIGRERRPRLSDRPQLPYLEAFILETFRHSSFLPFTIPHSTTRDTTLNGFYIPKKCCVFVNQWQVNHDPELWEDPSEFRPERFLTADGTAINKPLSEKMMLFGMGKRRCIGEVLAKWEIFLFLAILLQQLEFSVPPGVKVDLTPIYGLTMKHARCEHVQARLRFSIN

Cytochrome P450 2C9 = Cytochrome P450 2C9 (Homo sapiens, UniProt P11712)
Cytochrome P450 2C9, sequence (P11712 whole entry): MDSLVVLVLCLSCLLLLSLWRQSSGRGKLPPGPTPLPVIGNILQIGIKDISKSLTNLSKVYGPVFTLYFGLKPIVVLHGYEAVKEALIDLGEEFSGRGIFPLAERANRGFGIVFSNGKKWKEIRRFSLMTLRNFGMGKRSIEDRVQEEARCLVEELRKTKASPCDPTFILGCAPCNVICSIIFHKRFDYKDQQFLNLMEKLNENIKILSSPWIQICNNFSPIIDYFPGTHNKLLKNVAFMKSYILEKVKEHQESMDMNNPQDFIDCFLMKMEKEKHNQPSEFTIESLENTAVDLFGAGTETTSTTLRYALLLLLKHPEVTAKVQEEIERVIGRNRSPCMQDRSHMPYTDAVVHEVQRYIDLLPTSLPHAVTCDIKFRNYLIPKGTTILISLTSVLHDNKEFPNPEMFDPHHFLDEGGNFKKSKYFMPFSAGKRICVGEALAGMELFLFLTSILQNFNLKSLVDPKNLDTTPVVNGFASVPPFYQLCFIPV

[1] = Luminescence Cell-Based Dose Retest to Confirm Inhibitors of Cancer Stem Cells. [Related pubchem assays (depositor defined):AID2717, AID2721]; type: functional; details: Homo sapiens
Cytochrome P450 3A4 = Cytochrome P450 3A4 (Homo sapiens, UniProt P08684);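 note: CYP3A4 tested as one member of a cytochrome P450 panel screen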
Cytochrome P450 3A4, sequence (P08684 whole entry): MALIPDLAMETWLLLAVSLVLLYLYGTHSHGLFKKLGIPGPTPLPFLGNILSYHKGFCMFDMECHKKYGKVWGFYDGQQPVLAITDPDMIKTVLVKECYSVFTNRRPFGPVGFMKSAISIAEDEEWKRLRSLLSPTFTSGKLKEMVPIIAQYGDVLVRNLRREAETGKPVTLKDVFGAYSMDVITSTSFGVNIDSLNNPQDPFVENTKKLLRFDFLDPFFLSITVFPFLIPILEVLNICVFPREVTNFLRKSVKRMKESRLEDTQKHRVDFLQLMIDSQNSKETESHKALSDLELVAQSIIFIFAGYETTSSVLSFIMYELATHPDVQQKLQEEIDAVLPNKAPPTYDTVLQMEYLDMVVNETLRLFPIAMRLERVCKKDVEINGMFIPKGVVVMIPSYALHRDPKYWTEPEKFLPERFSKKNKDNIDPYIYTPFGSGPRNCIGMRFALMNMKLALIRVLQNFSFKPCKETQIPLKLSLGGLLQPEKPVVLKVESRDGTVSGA

Cytochrome P450 2D6 = Cytochrome P450 2D6 (Homo sapiens, UniProt P10635);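 note: CYP2D6 member of a cytochrome P450 panel assay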
Cytochrome P450 2D6, sequence (P10635 whole entry): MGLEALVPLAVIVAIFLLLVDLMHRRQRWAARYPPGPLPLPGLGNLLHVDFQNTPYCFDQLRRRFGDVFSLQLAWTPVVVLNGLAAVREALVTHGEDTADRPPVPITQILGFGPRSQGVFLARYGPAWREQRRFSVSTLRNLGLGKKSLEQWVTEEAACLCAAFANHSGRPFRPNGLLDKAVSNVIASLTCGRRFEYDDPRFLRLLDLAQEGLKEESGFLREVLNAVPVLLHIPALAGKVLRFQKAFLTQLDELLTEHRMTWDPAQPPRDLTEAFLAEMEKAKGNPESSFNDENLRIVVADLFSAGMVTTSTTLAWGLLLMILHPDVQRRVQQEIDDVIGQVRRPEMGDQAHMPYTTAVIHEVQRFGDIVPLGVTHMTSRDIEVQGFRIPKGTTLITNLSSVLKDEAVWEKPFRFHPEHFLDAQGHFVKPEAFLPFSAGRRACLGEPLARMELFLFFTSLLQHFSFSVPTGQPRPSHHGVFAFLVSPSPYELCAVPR

Cytochrome P450 2C19 = Cytochrome P450 2C19 (Homo sapiens, UniProt P33261); assay: Cytochrome panel assay with activity outcomes. Panel member name: p450-cyp2c19 Compounds with AC50 equal or less than 10 uM are considered active; type: functional; details: read-out: AC50
Cytochrome P450 2C19, sequence (P33261 whole entry): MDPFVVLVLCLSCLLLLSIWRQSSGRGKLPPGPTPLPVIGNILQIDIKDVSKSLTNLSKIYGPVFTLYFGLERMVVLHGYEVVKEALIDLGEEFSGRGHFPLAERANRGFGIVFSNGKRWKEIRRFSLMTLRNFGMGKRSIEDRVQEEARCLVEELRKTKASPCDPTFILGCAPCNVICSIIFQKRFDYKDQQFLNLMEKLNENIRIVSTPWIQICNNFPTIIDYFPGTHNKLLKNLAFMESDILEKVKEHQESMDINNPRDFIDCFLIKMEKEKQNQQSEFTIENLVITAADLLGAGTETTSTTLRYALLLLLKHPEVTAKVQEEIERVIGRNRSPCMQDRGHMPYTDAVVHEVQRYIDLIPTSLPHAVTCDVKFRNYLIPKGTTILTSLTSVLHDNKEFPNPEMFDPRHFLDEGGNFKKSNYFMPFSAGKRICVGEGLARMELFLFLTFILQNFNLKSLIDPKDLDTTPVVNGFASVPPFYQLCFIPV

With `O=C(COC(=O)c1cc(Cl)ccc1O)c1ccc2c(c1)OCO2` as the compound, how does the IC50 (cells) read?
The IC50 was 12.1 µM (active).

For `CCOC(=O)CSCC(NC(=O)OC(C)(C)C)C(=O)OCC` (stereo not drawn), which AC50 (Cytochrome P450 1A2) is on record?
Its AC50 is 25.1 µM (inconclusive).

And the AC50 (Cytochrome P450 2C9)?
Its AC50 is 14.1 µM (inconclusive).

For `CCCc1cc(-c2nc(-c3ccc(C)cc3)cs2)ccn1`, which AC50 [1] is on record?
The AC50 was 3.62 µM (active).

Which IC50 (cells) does the source give for `CN1CCN(c2c(F)cc3c(=O)c(C(=O)O)cn4c3c2SCC4)CC1` here?
Its IC50 is 8.05 µM (active).

With `CCNc1ncc2nc(-c3cccs3)c(=O)n(Cc3cccc(OC)c3)c2n1` as the compound, how does the AC50 (Cytochrome P450 1A2) read?
Its AC50 is 0.126 µM (inconclusive).

What about the AC50 (Cytochrome P450 3A4) of the same compound?
Its AC50 is 12.6 µM (inconclusive).

For `CCOC(=O)n1c(=O)n(Cc2ccccc2Cl)c2ccccc21`, which AC50 (Cytochrome P450 2D6) is on record?
The AC50 was 28.2 µM (inconclusive).

And the AC50 (Cytochrome P450 3A4)?
Its AC50 is 15.8 µM (inconclusive).

With `Cc1ccc2cc3c(nc2c1)OCC3` as the compound, how does the IC50 (cells) read?
Its IC50 is > 50 µM (active).

For `O=C(CCCC1=NS(=O)(=O)c2ccccc2N1)N1CCC2(CC1)OCCO2`, which AC50 (Cytochrome P450 2C19) is on record?
The AC50 was 17.8 µM (inconclusive).

And the AC50 (Cytochrome P450 3A4)?
Its AC50 is 35.5 µM (inconclusive).

What about the AC50 (Cytochrome P450 2C9) of the same compound?
The AC50 was 25.1 µM (inconclusive).

For `COC(=O)CN(C#N)c1nc(SC)nc(N(C)C)n1`, which IC50 (cells) is on record?
Its IC50 is 18.9 µM (active).

With `CCS(=O)(=O)c1ccc(O)c(NC(=O)Nc2ccccc2)c1` as the compound, how does the AC50 (Cytochrome P450 2C19) read?
Its AC50 is 39.8 µM (inconclusive).

What about the AC50 (Cytochrome P450 1A2) of the same compound?
Its AC50 is 20 µM (inconclusive).

And the AC50 (Cytochrome P450 2C9)?
The AC50 was 7.08 µM (inconclusive).

For `COCC(=O)N1CCC2(CCCN(c3ccncc3)C2)CC1`, which AC50 (Cytochrome P450 3A4) is on record?
Its AC50 is 25.1 µM (inconclusive).

Which AC50 (Cytochrome P450 1A2) does the source give for `CCCCC/N=c1\ccn(Cc2ccccc2)c2ccccc12` [CP-339818] here?
Its AC50 is 25.1 µM (inconclusive).

What about the AC50 (Cytochrome P450 3A4) of the same compound?
The AC50 was 15.8 µM (inconclusive).

Which AC50 (Cytochrome P450 1A2) does the source give for `CC#C[C@]1(O)CC[C@H]2[C@@H]3CCC4=CC(=O)CCC4=C3[C@H](c3ccc(N(C)C)cc3)C[C@@]21C` here?
Its AC50 is 25.1 µM (inconclusive).

For `O=[N+]([O-])c1cc(F)c(N2CCOCC2)cc1N1CCCCC1`, which AC50 (Cytochrome P450 3A4) is on record?
The AC50 was 17.8 µM (inconclusive).

For `Cc1ccnc(NC(=O)COc2ccc3c(c2)CCC3)c1`, which IC50 (cells) is on record?
The IC50 was 24.5 µM (active).

Which results are given for `Cc1ccc(C(=O)Cn2nnc3c(sc4nc5c(c(-c6ccccc6)c43)CCC5)c2=O)cc1`?
AC50 [1]: 0.462 µM (active); AC50 (Cytochrome P450 2C19): 25.1 µM (inconclusive)

For `COCCn1c(C(=O)N2CCCC2)cc2c1C[C@H]1CN(C(=O)c3ccccc3)[C@@](Cc3ccc(OC)cc3)(C(=O)OC)[C@@H]21`, which AC50 (Cytochrome P450 2C19) is on record?
Its AC50 is 39.8 µM (inconclusive).

And the AC50 (Cytochrome P450 2C9)?
Its AC50 is 39.8 µM (inconclusive).

For `CS(=O)(=O)N1CCC[C@@]2(CCN(Cc3nccs3)C2)C1`, which AC50 (Cytochrome P450 2C19) is on record?
Its AC50 is 39.8 µM (inconclusive).

What about the AC50 (Cytochrome P450 2D6) of the same compound?
The AC50 was 39.8 µM (inconclusive).

What about the AC50 (Cytochrome P450 3A4) of the same compound?
The AC50 was 12.6 µM (inconclusive).

Which results are given for `Cc1cccc(CN2CCN([C@@H](c3ccccc3)c3ccc(Cl)cc3)CC2)c1`?
AC50 (Cytochrome P450 2C19): 2.51 µM (inconclusive); AC50 (Cytochrome P450 1A2): 10 µM (inconclusive)

Which AC50 [1] does the source give for `COc1ccc(CCNc2cc(C)nc3c(-c4ccc(Cl)cc4)c(C)nn23)cc1OC` here?
Its AC50 is 2.88 µM (active).

With `CCc1cc2c(nc1CC)CCN(CC/C(C)=N/OC[C@@H](O)COCc1ccco1)C2` as the compound, how does the AC50 (Cytochrome P450 2D6) read?
Its AC50 is 3.98 µM (inconclusive).

And the AC50 (Cytochrome P450 3A4)?
Its AC50 is 3.16 µM (inconclusive).

With `COc1ccccc1NC(=O)C1=C(C)Nc2nnnn2C1c1cccc(Br)c1` (stereo not drawn) as the compound, how does the AC50 (Cytochrome P450 2D6) read?
Its AC50 is 15.8 µM (inconclusive).

And the AC50 (Cytochrome P450 1A2)?
Its AC50 is 31.6 µM (inconclusive).

With `CN(C)CCOc1ccc(C(C)(C)c2ccccc2)cc1` as the compound, how does the AC50 [1] read?
The AC50 was 1.96 µM (active).

For `CC1CCCN(c2ccc(C(=O)N3CCC4(CC3)OCCO4)cc2[N+](=O)[O-])C1` (stereo not drawn), which AC50 [1] is on record?
Its AC50 is 4.55 µM (active).

With `CO[C@@H]1COC(=O)[C@@H](CCSC)NC(=O)C/C=C\[C@@H](C)COC(=O)CCC[C@H]1C` as the compound, how does the AC50 (Cytochrome P450 3A4) read?
The AC50 was 3.98 µM (inconclusive).

With `Cc1c(NC(=O)/C=C/c2cn(-c3ccccc3)nc2-c2ccc(F)cc2)c(=O)n(-c2ccccc2)n1C` as the compound, how does the AC50 (Cytochrome P450 1A2) read?
The AC50 was 28.2 µM (inconclusive).

What about the AC50 (Cytochrome P450 3A4) of the same compound?
The AC50 was 25.1 µM (inconclusive).

And the AC50 (Cytochrome P450 2C9)?
Its AC50 is 20 µM (inconclusive).

With `CCOC(=O)COc1cc(O)c2c(=O)cc(-c3ccccc3)oc2c1` as the compound, how does the IC50 (cells) read?
Its IC50 is 0.86 µM (active).

For `CCN1CCN(c2cc(C(C)(C)C)nc3c(-c4ccccc4)c(C)nn23)CC1`, which AC50 [1] is on record?
The AC50 was 5.68 µM (active).

What does the source list for `CCOC(=O)CC1C(=O)NCCN1S(=O)(=O)c1ccccc1Cl` (stereo not drawn)?
AC50 (Cytochrome P450 2C19): 11.2 µM (inconclusive); AC50 (Cytochrome P450 2D6): 0.891 µM (inconclusive); AC50 (Cytochrome P450 3A4): 14.1 µM (inconclusive); AC50 (Cytochrome P450 2C9): 0.00562 µM (inconclusive)

Which IC50 (cells) does the source give for `O=C(Oc1cccc2cccnc12)c1cccc([N+](=O)[O-])c1` here?
The IC50 was 10.9 µM (active).

With `N[C@H](Cc1ccc2oc3cc(=O)c4ccccc4c-3nc2c1)C(=O)O` as the compound, how does the AC50 (Cytochrome P450 3A4) read?
The AC50 was 3.98 µM (inconclusive).

For `Cc1ccccc1OCCNC=C1C(=O)N(C)C(=O)N(C)C1=O`, which AC50 (Cytochrome P450 3A4) is on record?
The AC50 was 20 µM (inconclusive).

What about the AC50 (Cytochrome P450 2C9) of the same compound?
The AC50 was 0.0126 µM (inconclusive).

What does the source list for `Cc1cccc2cc(CN(Cc3ccccc3)C(=O)c3cccc(F)c3)c(Cl)nc12`?
AC50 (Cytochrome P450 2D6): 15.8 µM (inconclusive); AC50 (Cytochrome P450 1A2): 11.2 µM (inconclusive)

With `CN(C)CCNc1nc2sc3c(c2c(=O)n1-c1ccccc1)CCCCC3` as the compound, how does the AC50 [1] read?
Its AC50 is 4.27 µM (active).

For `Cn1cccc1C(=O)N1CCC[C@@]2(CCN(Cc3cc(C(F)(F)F)cc(C(F)(F)F)c3)C2)C1`, which AC50 (Cytochrome P450 2C19) is on record?
Its AC50 is 39.8 µM (inconclusive).

What about the AC50 (Cytochrome P450 2C9) of the same compound?
Its AC50 is 39.8 µM (inconclusive).

With `COc1ccc(NC(=O)CCNS(=O)(=O)c2ccc3c(c2)CCC(=O)N3)cc1` as the compound, how does the AC50 (Cytochrome P450 2C9) read?
Its AC50 is 4.47 µM (inconclusive).

For `N[C@H]1C[C@H]1c1ccccc1`, which AC50 (Cytochrome P450 2D6) is on record?
The AC50 was 12.6 µM (inconclusive).

What about the AC50 (Cytochrome P450 2C9) of the same compound?
The AC50 was 12.6 µM (inconclusive).

Which AC50 [1] does the source give for `CN1CCN(c2ccc([N+](=O)[O-])c(NCc3ccco3)c2)CC1` here?
Its AC50 is 0.512 µM (active).

Which AC50 (Cytochrome P450 3A4) does the source give for `O=C(C[C@H](c1ccccc1)c1c(O)c2ccccc2oc1=O)c1ccccc1` here?
Its AC50 is 3.16 µM (inconclusive).

For `C[C@@H](Cc1ccc(Cl)cc1Cl)NO`, which AC50 (Cytochrome P450 1A2) is on record?
Its AC50 is 0.251 µM (active).

With `CCCCCCSc1cccc(-c2nc3ccc(Cl)cn3c2NCc2ccccc2)c1` as the compound, how does the AC50 [1] read?
The AC50 was 1.55 µM (active).

Which AC50 [1] does the source give for `O=C(O)c1ccccc1C(=O)NNc1ccc(Cl)cc1` here?
Its AC50 is 0.983 µM (active).

And the AC50 (Cytochrome P450 2C19)?
Its AC50 is 5.01 µM (inconclusive).

What about the AC50 (Cytochrome P450 1A2) of the same compound?
The AC50 was 6.31 µM (inconclusive).

Which results are given for `O=C(Nc1cccc([N+](=O)[O-])c1)c1ccc(CSc2ccccc2)cc1`?
AC50 (Cytochrome P450 2C19): 14.1 µM (inconclusive); AC50 (Cytochrome P450 3A4): 20 µM (inconclusive); AC50 (Cytochrome P450 2C9): 0.562 µM (inconclusive)

With `CC(C)c1cccc(C(C)C)c1OC(=O)[C@H]1OC(c2ccc(Br)cc2)=C[C@@H]1c1ccc(Br)cc1` as the compound, how does the AC50 [1] read?
Its AC50 is 3.58 µM (active).

With `COc1ccc(CNc2ccnc(-c3ccccc3CN(C)C)n2)c(OC)c1` as the compound, how does the AC50 (Cytochrome P450 1A2) read?
Its AC50 is 15.8 µM (inconclusive).

For `COc1ccc(-c2sc3ccccc3c2/C=C/c2ccc(N)cc2)cc1`, which AC50 [1] is on record?
The AC50 was 3.98 µM (active).

Which results are given for `CN(C)c1ncnc2ccc(-c3ccccc3C(F)(F)F)cc12`?
AC50 (Cytochrome P450 2D6): 15.8 µM (inconclusive); AC50 (Cytochrome P450 3A4): 10 µM (inconclusive)

Which results are given for `CC1=CC(C)(C)N(C)C(=O)N1c1ccc(Cl)cc1`?
AC50 (Cytochrome P450 1A2): 17.8 µM (inconclusive); AC50 (Cytochrome P450 2C9): 31.6 µM (inconclusive)

From ChEMBL document CHEMBL1201862, “PubChem BioAssay data set” (2004)
